Measurements reported in ChEMBL document CHEMBL4823254, “Tetrahydroquinoline-Capped Histone Deacetylase 6 Inhibitor SW-101 Ameliorates Pathological Phenotypes in a Charcot-Marie-Tooth Type 2A Mouse Model” (J Med Chem, 2021).
Activity calls are given as the source filed them.

Legend:
[1] = Stability in human pooled liver microsomes assessed as parent compound remaining measured at 60 mins in presence of NADPH by LC-MS/MS analysis; assay type: ADME, Microsome; conditions: pooled liver microsomes, read-out: Stabilty
[2] = target: Histone deacetylase 2 (Homo sapiens, UniProt Q92769); experiment: Inhibition of recombinant human HDAC2 using Ac-GAK(Ac)-AMC as substrate preincubated for 10 mins followed by substrate addition and measured after 30 mins by fluorescence-based assay
[3] = target: T1, Protein deacetylase HDAC6 (Homo sapiens, UniProt Q9UBN7); experiment: Inhibition of HDAC6 in human RPMI-8226 cells assessed as increase in tubulin acetylation incubated for 6 hrs by Western blot analysis; assay type: cell-based
T1 sequence (Q9UBN7 whole entry): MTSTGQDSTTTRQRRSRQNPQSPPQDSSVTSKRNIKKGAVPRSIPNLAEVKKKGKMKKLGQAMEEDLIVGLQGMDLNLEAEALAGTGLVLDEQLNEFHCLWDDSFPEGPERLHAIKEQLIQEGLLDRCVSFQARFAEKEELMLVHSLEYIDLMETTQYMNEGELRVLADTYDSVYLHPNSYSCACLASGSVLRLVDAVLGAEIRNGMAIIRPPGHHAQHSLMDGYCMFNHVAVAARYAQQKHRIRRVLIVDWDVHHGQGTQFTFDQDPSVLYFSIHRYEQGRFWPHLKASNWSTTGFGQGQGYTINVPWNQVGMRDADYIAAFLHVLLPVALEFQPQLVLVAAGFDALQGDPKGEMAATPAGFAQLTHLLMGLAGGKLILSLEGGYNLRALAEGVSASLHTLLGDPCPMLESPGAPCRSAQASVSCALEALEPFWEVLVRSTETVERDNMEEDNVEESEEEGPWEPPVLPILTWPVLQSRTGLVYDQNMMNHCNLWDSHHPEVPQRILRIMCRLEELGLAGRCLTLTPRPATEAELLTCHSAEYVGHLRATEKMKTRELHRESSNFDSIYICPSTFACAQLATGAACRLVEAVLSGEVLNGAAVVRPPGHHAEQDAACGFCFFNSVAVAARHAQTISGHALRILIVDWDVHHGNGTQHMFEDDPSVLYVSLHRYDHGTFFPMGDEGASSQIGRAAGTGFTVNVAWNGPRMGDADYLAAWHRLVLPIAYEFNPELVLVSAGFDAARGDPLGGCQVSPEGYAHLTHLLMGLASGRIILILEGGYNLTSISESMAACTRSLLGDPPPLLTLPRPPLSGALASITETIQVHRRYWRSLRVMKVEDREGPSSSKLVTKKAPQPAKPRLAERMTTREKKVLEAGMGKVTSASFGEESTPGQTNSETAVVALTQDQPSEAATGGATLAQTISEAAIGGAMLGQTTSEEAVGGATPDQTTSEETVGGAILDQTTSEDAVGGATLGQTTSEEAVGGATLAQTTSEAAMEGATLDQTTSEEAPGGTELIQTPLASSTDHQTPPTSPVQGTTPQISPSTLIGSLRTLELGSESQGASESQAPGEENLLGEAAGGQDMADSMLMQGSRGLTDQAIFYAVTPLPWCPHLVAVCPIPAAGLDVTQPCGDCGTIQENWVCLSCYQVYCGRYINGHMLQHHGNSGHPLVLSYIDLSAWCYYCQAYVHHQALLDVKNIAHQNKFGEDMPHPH

[4] = Half life in mouse plasma; assay type: ADME, cell-free
[5] = Genotoxicity in Salmonella typhimurium TA1537 at 5 to 100 uM in absence of liver S9 fraction by Ames test; assay type: toxicity; conditions: salmonella enterica subsp. enterica serovar typhimurium, s9, 100 µM; dose 5-100 µM
[6] = Cmax in C57BL/6J mouse plasma at 15 mg/kg, ip; assay type: ADME, organism-based; design: route intraperitoneal, dose 15 mg/kg
[7] = Tmax in C57BL/6J mouse plasma at 15 mg/kg, ip; assay type: ADME, organism-based
[8] = target: T2, Protein deacetylase HDAC6 (Mus musculus) (UniProt Q9Z2V5); experiment: In vivo inhibition of HDAC6 in wild type mouse assessed as increase in alpha-tubulin acetylation in sciatic nerve tissue at 20 mg/kg, ip administered for 12 hrs by immunoblot analysis relative to control; assay type: functional, organism-based; design: scale not given: the % may be the effect or the level left
T2 sequence (whole entry): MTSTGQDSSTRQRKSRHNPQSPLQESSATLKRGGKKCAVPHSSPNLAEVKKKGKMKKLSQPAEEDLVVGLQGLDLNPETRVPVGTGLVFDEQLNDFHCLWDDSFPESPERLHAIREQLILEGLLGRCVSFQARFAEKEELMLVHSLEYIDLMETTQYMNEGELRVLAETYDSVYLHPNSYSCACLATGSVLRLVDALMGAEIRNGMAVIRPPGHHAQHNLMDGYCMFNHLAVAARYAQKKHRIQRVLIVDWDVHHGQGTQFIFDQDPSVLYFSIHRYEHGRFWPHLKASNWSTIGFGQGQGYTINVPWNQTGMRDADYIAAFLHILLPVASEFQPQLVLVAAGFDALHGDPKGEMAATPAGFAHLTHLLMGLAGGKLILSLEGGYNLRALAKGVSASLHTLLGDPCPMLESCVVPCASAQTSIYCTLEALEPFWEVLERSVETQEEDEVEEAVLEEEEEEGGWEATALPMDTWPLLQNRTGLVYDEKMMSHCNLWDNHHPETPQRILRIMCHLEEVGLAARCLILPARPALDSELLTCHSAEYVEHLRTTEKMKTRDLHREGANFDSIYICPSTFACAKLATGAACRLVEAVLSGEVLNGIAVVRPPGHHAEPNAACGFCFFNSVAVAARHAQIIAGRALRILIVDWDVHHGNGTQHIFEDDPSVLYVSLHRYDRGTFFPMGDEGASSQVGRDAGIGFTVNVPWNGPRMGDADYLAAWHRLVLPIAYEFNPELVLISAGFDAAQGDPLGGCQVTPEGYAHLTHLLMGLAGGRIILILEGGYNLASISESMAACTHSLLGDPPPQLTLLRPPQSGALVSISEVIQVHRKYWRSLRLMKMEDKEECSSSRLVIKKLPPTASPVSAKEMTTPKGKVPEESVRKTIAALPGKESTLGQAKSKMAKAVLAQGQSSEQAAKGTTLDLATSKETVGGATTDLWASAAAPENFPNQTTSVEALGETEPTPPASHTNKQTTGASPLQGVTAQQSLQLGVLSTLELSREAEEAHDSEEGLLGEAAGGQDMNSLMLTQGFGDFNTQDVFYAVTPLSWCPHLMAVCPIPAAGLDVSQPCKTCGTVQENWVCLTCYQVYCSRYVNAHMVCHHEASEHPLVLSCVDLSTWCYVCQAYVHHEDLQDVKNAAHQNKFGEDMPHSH

[9] = system: Mus musculus; experiment: Neuroprotective activity in hMFN2-induced CMT2A transgenic mouse model assessed as increase in motor performance at 20 mg/kg, ip qd by rotarod test; assay type: functional, organism-based
[10] = system: Mus musculus; experiment: Neuroprotective activity in hMFN2-induced CMT2A transgenic mouse model assessed as increase in paw withdrawal threshold at 20 mg/kg, ip qd by von Frey test; assay type: functional, organism-based
[11] = system: Mus musculus; experiment: Neuroprotective activity in hMFN2-induced CMT2A transgenic mouse model assessed as increase in paw withdrawal latency at 20 mg/kg, ip qd administered when treated prior with compound dissolved in PBS/PEG400/Tween80/EtOH (50/35/10/5) wt% as vehicle by von Frey test; assay type: functional, organism-based

Histone deacetylase 2, sequence (Q92769 whole entry): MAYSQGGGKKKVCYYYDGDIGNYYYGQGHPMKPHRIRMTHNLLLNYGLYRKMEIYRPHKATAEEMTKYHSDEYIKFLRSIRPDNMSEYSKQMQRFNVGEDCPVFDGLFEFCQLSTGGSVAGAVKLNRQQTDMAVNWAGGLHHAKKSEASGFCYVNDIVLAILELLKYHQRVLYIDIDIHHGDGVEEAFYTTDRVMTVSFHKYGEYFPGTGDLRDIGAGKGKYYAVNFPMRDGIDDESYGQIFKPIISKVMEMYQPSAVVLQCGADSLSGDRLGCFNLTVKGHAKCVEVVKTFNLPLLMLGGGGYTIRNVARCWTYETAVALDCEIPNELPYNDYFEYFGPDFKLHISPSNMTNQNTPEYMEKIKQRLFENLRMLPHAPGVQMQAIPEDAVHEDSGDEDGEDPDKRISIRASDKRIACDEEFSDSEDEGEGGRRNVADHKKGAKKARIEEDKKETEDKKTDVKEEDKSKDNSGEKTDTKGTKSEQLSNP

Q: Which results are given for `NC(=O)c1ccc2c(c1)CCCN2Cc1ccc(C(=O)NO)cc1`?
A: remaining at 1 h [1]: 76.3%; IC50 [2]: 140 nM; EC50 [3]: 140 nM; half-life [4]: 2.12 h; Activity [5]: Non-Toxic; Cmax [6]: 3580 ng/mL; Tmax [7]: 4.8 min; Activity [8]: 175%; Activity [9]: Active; Activity [10]: Active; Activity [11]: Active
